Assay results taken from US20260263485A1, “AMINOSTEROL COMPOUNDS, AMINOSTEROL-CYCLODEXTRIN FORMULATIONS, AND METHODS OF USING THE SAME” (Enterin, Inc., priority 2022, published 2026).
Where “and” joins values, the source holds several entries; their conditions need not be identical. Identical values can stand only once. Like-named read-outs stand apart in the source and are kept apart here.

Tests used:
[1] = Plasma pharmacokinetics of ENT-03S cyclodextrin formulation after subcutaneous injection; assay type: in vivo, rat; conditions: male, Sprague-Dawley, rat, plasma, sc, 10 mg/kg, 20% beta-cyclodextrin formulation, SC Dose 10 mg/kg, male SD rats, plasma
Experimental: In this example, ENT-03S was formulated with unmodified beta-cyclodextrin at a concentration of 25 mg/ml ENT-03, and 20% beta-cyclodextrin, pH 7.5, buffered with phosphate.
Male Sprague-Dawley rats were administered the ENT-03-cyclodextrin formulation subcutaneous at a dose of 10 mg/kg. Blood samples were drawn from the tail vein at various times, the concentrations of ENT-03 determined, and PK parameters determined.

[2] = Plasma pharmacokinetics of aqueous ENT-03S solution without cyclodextrin after subcutaneous injection; assay type: in vivo, rat; conditions: 2 mg/ml, 10 mg/kg SC, male SD rats
Experimental: The benefits provided by the aminosterol-cyclodextrin formulation disclosed herein can be appreciated by comparing the pharmacokinetics of an aqueous solution of ENT-03S in the absence of cyclodextrin at a concentration of ENT-03S of 2 mg/ml at […].
(§1) The dose chosen was the maximum ENT-03S concentration that could be delivered to the rat without causing visible local tissue necrosis.
The experiment was conducted in male Sprague-Dawley rats following the same protocol as above. The formulation was administered subcutaneously at a dose of 10 mg/kg. The data obtained are shown below in Tables 19 and 20 and FIG. 35.

[3] = Subcutaneous injection into a human subject (local tolerability); assay type: in vivo
Experimental: […] The contents of the syringe were injected subcutaneously in the abdominal area of a human subject creating a visible swelling.

[4] = Visible local tissue necrosis on subcutaneous delivery to the rat; assay type: in vivo; conditions: aqueous solution in the absence of cyclodextrin, pH 74
From the text: as §1

[5] = male, Sprague-Dawley, in vivo, sc, 10 mg/kg
Experimental: An equal volume of rat bile samples (50 μL) were taken from different animals at different time points following administration of ENT-03S. 50 μL of matrix was mixed with 200 μL of methanol (containing 0.1% formic acid), vortexed for 100 seconds and then centrifuged at 16,000 g for 10 minutes at 4° C. to precipitate proteins. 100 μL of the supernatant was transferred to a new tube and the supernatant diluted with 100 μt, pure water, mixed well and analyzed using UPLC-MS/MS.
The peak area percentages of parent drug and each metabolite were determined by semi-quantitative estimation using the extracted ion chromatogram peak areas of all detected drug-related material in the sample. Metabolites with percentage of peak area>10% are proposed as major metabolites of ENT-03S.
Bile samples were obtained from male rats at various time points following a 10 mg/kg dose of ENT-03S via subcutaneous administration in bile dicut cannulated male SD rats as detailed in Table 10. The samples were transferred on dry ice and stored at −80° C. prior to use
Study design: An equal volume of rat bile samples (50 μL) were taken from different animals at different time points following administration of ENT-03S in study No.: PII-DMPK-ETR-21-001. 50 μL of matrix was mixed with 200 μL of methanol (containing 0.1% formic acid), vortexed for 100 seconds and then centrifuged at 16,000 g for 10 minutes at 4° C. to precipitate proteins. 100 μL of the supernatant was transferred to a new tube and the supernatant diluted with 100 μL pure water, mixed well and analyzed using UPLC-MS/MS.
Sample preparation: For bile samples, an equal volume of samples (50 μL) are taken from different animals at various time points after the administration of each group of samples, and the same group of samples are mixed thoroughly.
Data Analysis: UPLC-MS/MS was used for sample analysis, and was conducted using a DionexUltiMate 3000/Vanquish UHPLC system. For mass spectrometry (MS), all analysis was carried out with a Q-Exactive instrument (Thermo Fisher). A full MS scan was used to trigger the data dependent acquisition (DDA) of MS/MS scan spectra. Compound dependent parameters were optimized by ENT-03S. DDA settings were used to trigger acquisition of MS^2 spectra for ions whose intensity is in top 5 of all, with exclusion of impurity ions (m/z 149.02332, m/z 279.15909, m/z 391.28429 and m/z 445.12003), after 3 occurrences for 10 s. Dynamic exclusion settings: automatic exclusion of the ions which have been taken.
Data Analysis: The analysis was carried out using a thermo Fisher Scientific Q Exactive instrument. Full MS scan was used to trigger the data dependent acquisition (DDA) of MS/MS scan spectra. Compound dependent parameters were optimized by ENT-03S. DDA settings were used to trigger acquisition of MS^2 spectra for ions whose intensity was in the top 5 of all, with exclusion of ions (m/z 149.02332, m/z 279 1 5909, m/z 391.28429 and m/z 445 12003), after 3 occurrences for 10 s. Data was acquired and processed using Xcalibur v4.1 software (Thermo Fisher Scientific) and Compound Discoverer 3.1 (Thermo Fisher Scientific) and Excel (Microsoft 2016).

[6] = 0. 1l of aqueous ENT-03S 2 mg/ml, pH 74, no cyclodextrin

With `C[C@H](CCC[C@H](C)C(=O)O)[C@H]1CCC2C3C(CC[C@@]21C)[C@@]1(C)CC[C@H](NCCCNCCCCNCCCN)C[C@@H]1C[C@H]3O` (stereo partly drawn) [ENT-03S, (2S,6R)-6-((3S,5R,7R,10S,13R,17R)-3-((3-((4-((3-aminopropyl)amino)butyl)amino)propyl)amino)-7-hydroxy-10,13-dimethylhexadecahydro-1 H-cyclopenta[a]phenanthren-17-yl)-2-methylheptanoic acid] as the molecule, how does the AUC(0-t) ([1]; individual rats, read-out: AUClast) read?
Its AUC(0-t) is 716 µg·h/mL.

And the AUC ([1]; individual rats, read-out: AUClnf)?
Its AUC is 767 µg·h/mL.

What about the Cmax ([1]; individual rats, read-out: Cmax) of the same molecule?
Its Cmax is 31300 ng/mL.

What about the half-life ([1]; individual rats, read-out: T1/2 (converted)) of the same molecule?
Its half-life is 19.4 h.

And the AUC(0-t) ([1]; mean, read-out: AUClast Mean)?
The AUC(0-t) was 824 µg·h/mL.

And the AUC ([1]; mean, read-out: AUClnf Mean)?
Its AUC is 920 µg·h/mL.

And the Cmax ([1]; mean, read-out: Cmax Mean)?
Its Cmax is 32400 ng/mL.

And the half-life ([1]; mean, read-out: T1/2 Mean (converted))?
The half-life was 22.4 h.

And the “Concentration (ng/ml) Rat 1-3” value ([2]; 0.25 h, individual rats, 10 mg/kg)?
Its value is 1150 ng/mL and 702 ng/mL and 1930 ng/mL.

What about the “Concentration (ng/ml) Rat 1-3” value ([2]; 0.5 h, individual rats, 10 mg/kg) of the same molecule?
The value was 2300 ng/mL and 1490 ng/mL and 3220 ng/mL.

And the “Concentration (ng/ml) Rat 1-3” value ([2]; 1 h, individual rats, 10 mg/kg)?
Its value is 4910 ng/mL and 2590 ng/mL and 5570 ng/mL.

And the “Concentration (ng/ml) Rat 1-3” value ([2]; 2 h, individual rats, 10 mg/kg)?
Its value is 5900 ng/mL and 8620 ng/mL.

And the “Concentration (ng/ml) Rat 1-3” value ([2]; 4 h, individual rats, 10 mg/kg)?
Its value is 10800 ng/mL and 16100 ng/mL.

And the “Concentration (ng/ml) Rat 1-3” value ([2]; 8 h, individual rats, 10 mg/kg)?
The value was 19600 ng/mL and 24800 ng/mL.

What about the “Concentration (ng/ml) Rat 1-3” value ([2]; 24 h, individual rats, 10 mg/kg) of the same molecule?
The value was 40000 ng/mL and 54300 ng/mL.

What about the AUClast ([2]; individual rats, 10 mg/kg) of the same molecule?
Its AUClast is 559.927 µg·h/mL and 749.498 µg·h/mL.

And the AUClast/D ([2]; individual rats, 10 mg/kg)?
Its AUClast/D is 67500 kg·ng·h/mL/mg and 56000 kg·ng·h/mL/mg and 75000 kg·ng·h/mL/mg.

What about the Cmax ([2]; individual rats, 10 mg/kg) of the same molecule?
Its Cmax is 40000 ng/mL and 54300 ng/mL.

And the AUClast/D Mean ([2]; mean)?
Its AUClast/D Mean is 66200 kg·ng·h/mL/mg.

What about the concentration at 0.25 h ([2]; male, Sprague-Dawley, rat, plasma, sc, 10 mg/kg, 0.25 h, mean) of the same molecule?
Its concentration at 0.25 h is 1260 ng/mL.

What about the concentration at 0.5 h ([2]; male, Sprague-Dawley, rat, plasma, sc, 10 mg/kg, 0.5 h, mean) of the same molecule?
The concentration at 0.5 h was 2340 ng/mL.

What about the concentration at 1 h ([2]; male, Sprague-Dawley, rat, plasma, sc, 10 mg/kg, 1 h, mean) of the same molecule?
Its concentration at 1 h is 4360 ng/mL.

And the concentration at 2 h ([2]; male, Sprague-Dawley, rat, plasma, sc, 10 mg/kg, 2 h, individual rats, read-out: Concentration (ng/ml) Rat 1-3)?
The concentration at 2 h was 8380 ng/mL.

What about the concentration at 2 h ([2]; male, Sprague-Dawley, rat, plasma, sc, 10 mg/kg, 2 h, mean, read-out: Concentration Mean) of the same molecule?
Its concentration at 2 h is 7630 ng/mL.

What about the concentration at 4 h ([2]; male, Sprague-Dawley, rat, plasma, sc, 10 mg/kg, 4 h, individual rats, read-out: Concentration (ng/ml) Rat 1-3) of the same molecule?
The concentration at 4 h was 14100 ng/mL.

And the concentration at 4 h ([2]; male, Sprague-Dawley, rat, plasma, sc, 10 mg/kg, 4 h, mean, read-out: Concentration Mean)?
Its concentration at 4 h is 13700 ng/mL.

And the concentration at 8 h ([2]; male, Sprague-Dawley, rat, plasma, sc, 10 mg/kg, 8 h, individual rats, read-out: Concentration (ng/ml) Rat 1-3)?
Its concentration at 8 h is 26900 ng/mL.

And the concentration at 8 h ([2]; male, Sprague-Dawley, rat, plasma, sc, 10 mg/kg, 8 h, mean, read-out: Concentration Mean)?
The concentration at 8 h was 23800 ng/mL.

What about the concentration at 24 h ([2]; male, Sprague-Dawley, rat, plasma, sc, 10 mg/kg, 24 h, individual rats, read-out: Concentration (ng/ml) Rat 1-3) of the same molecule?
Its concentration at 24 h is 43300 ng/mL.

What about the concentration at 24 h ([2]; male, Sprague-Dawley, rat, plasma, sc, 10 mg/kg, 24 h, mean, read-out: Concentration Mean) of the same molecule?
The concentration at 24 h was 45900 ng/mL.

What about the Tmax ([2]; male, Sprague-Dawley, rat, plasma, sc, 10 mg/kg, individual rats) of the same molecule?
Its Tmax is 24 h.

What about the AUC(0-t) ([2]; male, Sprague-Dawley, rat, plasma, sc, 10 mg/kg, individual rats, read-out: AUClast) of the same molecule?
The AUC(0-t) was 675 µg·h/mL.

What about the Cmax ([2]; male, Sprague-Dawley, rat, plasma, sc, 10 mg/kg, individual rats, read-out: Cmax) of the same molecule?
Its Cmax is 43300 ng/mL.

What about the AUC(0-t) ([2]; male, Sprague-Dawley, rat, plasma, sc, 10 mg/kg, mean, read-out: AUClast Mean) of the same molecule?
Its AUC(0-t) is 662 µg·h/mL.

And the Cmax ([2]; male, Sprague-Dawley, rat, plasma, sc, 10 mg/kg, mean, read-out: Cmax Mean)?
The Cmax was 45900 ng/mL.

What about the “local swelling, redness, and warmth” value [3, 6] of the same molecule?
Its value is “lasted for several days”.

What about the pain on injection [3, 6] of the same molecule?
Its pain on injection is “severe pain within seconds that persisted for several hours”.

And the “disappearance of swelling at injection site” value ([3]; 1 ml of Example 4 formulation (ENT-03S 50 mg/ml, 25% 2-hydroxypropyl β-cyclodextrin), abdominal area)?
The value was “Over the course of an hour, the swelling disappeared”.

What about the “sensation on subcutaneous injection” value ([3]; 1 ml of Example 4 formulation (ENT-03S 50 mg/ml, 25% 2-hydroxypropyl β-cyclodextrin, phosphate, pH 7.4-7.6), abdominal area) of the same molecule?
The value was “mild stinging sensation was noted, which disappeared within a few minutes”.

What about the “maximum ENT-03S concentration that could be delivered to the rat without causing visible local tissue necrosis” value [4] of the same molecule?
The value was 2 mg/mL.

What about the “Metabolite peak area Rat Bile” value [5] of the same molecule?
Its value is 1.70E+07.

And the “Metabolite peak area percentages Rat Bile” value [5]?
Its value is 13.77%.
